Measurements as given in US20260008862A1, “Bispecific Anti-BCMA x Anti-CD3 Antibodies and Uses Thereof” (Regeneron Pharmaceuticals, Inc., priority 2018, published 2026).
Entries after “also recorded” stand apart in the source; their conditions may differ. Like-named read-outs stand apart in the source and are kept apart here.

How the values were obtained:
[1] = tested on: Jurkat/NFATLuc.3C7 cells + OPM-2 cells; assay: Jurkat/NFATLuc reporter bioassay with OPM-2 cells; type: cell-based; conditions: highest RLU / lowest RLU
Description: (§1) Activity of the anti-BCMA×anti-CD3 bispecific antibodies were assessed in a Jurkat/NFATLuc reporter bioassay utilizing several cell lines with varying levels of BCMA surface expression. The Jurkat cells were engineered to express an NFAT-luciferase reporter (Jurkat/NFATLuc.3C7), and 50,000 Jurkat reporter cells were combined with 50,000 BCMA positive (Daudi, MM1-S, NCI-H929, OPM-2, RPMI-8226, MOLP-8, or Raji) or BCMA negative (HEK293) cells in Thermo Nunclon delta 96 well white microwell plates (Thermo Scientific, Cat #136102) in 50 ul of assay media (RPMI media with 10% FBS and 1% P/S/G). Three-fold serial dilutions of the BCMA×CD3 bispecific antibodies (mAb25441 D or mAb25442D), or a bivalent anti-BCMA antibody (mAb21581) were immediately added in 50 μL of assay buffer. The plates were gently agitated and incubated in a 37° C., 5% CO2 incubator for 4-6 hours. NFAT-Luciferase activity was determined using Promega One-Glo (Cat #E6130) and a Perkin Elmer Envision plate reader. RLU were plotted in GraphPad Prism using a four-parameter logistic equation over a 12-point response curve to calculate EC50 values. […] The signal to noise (S:N) is determined by taking the ratio of the highest RLU on the curve to the lowest.

[2] = tested on: Jurkat/NFATLuc.3C7 cells + NCI-H929 cells; assay: Jurkat/NFATLuc reporter bioassay with NCI-H929 cells; type: cell-based; conditions: highest RLU / lowest RLU
Description: as §1

[3] = tested on: primary multiple myeloma blast cells; assay: FACS cytotoxicity assay, autologous T cell-mediated killing of primary multiple myeloma blast cells; type: cell-based, human; conditions: for EC50: read-out: MM Lysis EC50
Description: In order to monitor the specific killing of multiple myeloma cells by flow cytometry, bone marrow mononuclear cells (BMMC) from multiple myeloma patients were plated on human stromal cells (HS5) and rested overnight at 37 C. Separately, matching patient peripheral blood mononuclear cells (PBMC) were thawed and cultured in supplemented RPMI media at 1×10^6 cells/mL overnight at 37° C. in order to enrich for lymphocytes by depleting adherent cells. The next day, BMMC were co-incubated with adherent cell-depleted naïve PBMC on stromal cells (HS5) and a serial […] dilution of BCMA×CD3 bispecific or 1-arm CD3 isotype control (starting concentration 66.7 nM) at 37° C. Cells were removed from cell culture plates at day 3, 4 or 7 and analyzed by FACS. For the assessment of specificity of killing, multiple myeloma cells were gated as single, live, CD90 negative (to exclude stromal cells), CD2 negative, CD56 positive. CD45 was low on multiple myeloma cells in most samples except MM455. Percent of live target cells was reported for the calculation of adjusted survival as follows: Adjusted survival=(R1/R2)*100, where R1=% live target cells in the presence of antibody, and R2=% live target cells in the absence of test antibody.
T cells were gated as CD2 positive, CD56 negative and either CD4 or CD8 positive. T cell activation was reported as the percent of CD25+CD4 or CD8 T cells out of total CD4 or CD8 T cells.

[4] = tested on: monkey BCMA-MFC; assay: SPR (Biacore 4000) binding kinetics to monkey BCMA-MFC; conditions: 25° C.
Description: (§2) The CM5 Biacore sensor surface was derivatized by amine coupling with a monoclonal mouse anti-human Fc antibody (GE, #BR-11008-39) to capture purified anti-BCMA mAbs and anti-BCMA×anti-CD3 bispecific mAbs. All Biacore binding studies were performed in a buffer composed of 0.01 M HEPES pH 7.4, 0.15M NaCl, 3 mM EDTA, 0.05% v/v Surfactant P20 (HBS-ET running buffer). […] Antigen samples were then injected over the anti-BCMA and anti-BCMA×anti-CD3 bispecific mAbs captured surfaces at a flow rate of 30 μL/minute. Antibody-reagent association was monitored for 5 minutes while dissociation in HBS-ET running buffer was monitored for 10 minutes. All of the binding kinetics experiments were performed at 25° C. Kinetic association (ka) and dissociation (kd) rate constants were determined by fitting the real-time sensorgrams to a 1:1 binding model using Scrubber 2.0c curve fitting software. Binding dissociation equilibrium constants (KD) and dissociative half-lives (t½) were calculated from the kinetic rate constants as: […]

[5] = tested on: monkey BCMA-MMH; assay: SPR (Biacore 4000) binding kinetics to monkey BCMA-MMH; conditions: 25° C.
Description: as §2

[6] = target: T1, primary cynomolgus CD8+ T cells (Macaca fascicularis, UniProt Q95LI5+Q95LI8); assay: FACS binding to primary cynomolgus CD8+ T cells; conditions: median EC50, FACS binding
T1 construct: endogenous in cells; host or cells: primary cynomolgus CD8+ T cells (gated CD8+/CD16-)
Description: Flow cytometric analysis was utilized to determine binding of BCMA×CD3 bispecific antibodies to human and cynomolgus CD3 (Jurkat cells, mfCD3 engineered Jurkat cells, primary human CD8+ and cynomolgus CD8+ T cells). Briefly, 1e05 cells/well were incubated in the presence of FACS wash with block (PBS+1% filtered FBS+5% mouse serum) with a serial dilution of BCMA×CD3 and control antibodies for 30 minutes on ice. After incubation, the cells were washed twice with cold FACS wash (PBS+1% filtered FBS) and bound antibody was detected by incubating with Alexa647-conjugated anti-human secondary antibody on ice for an additional 30 minutes. Wells containing no antibody or secondary only were used as a control. For the detection of monkey and human T cells, a cocktail of human and cynomolgus cross-reactive antibodies to CD4, CD8 and CD16 was added to the anti-human secondary. After incubation, cells were washed, re-suspended in 200 μL cold PBS containing 1% filtered FBS and analyzed by flow cytometry on a BD FACS Canto II. Cells were gated by FSC-H by FSC-A to select singlet events, followed by side and forward scatters to select for live events. For monkey T cells, additional gating on CD8+/CD16− cells was performed.
EC50 values for FACS binding were calculated using 4-parameter non-linear regression analysis in Prism software.

[7] = tested on: Jurkat/NFATLuc.3C7 cells + MOLP-8 cells; assay: Jurkat/NFATLuc reporter bioassay with MOLP-8 cells; type: cell-based; conditions: highest RLU / lowest RLU
Description: as §1

[8] = sample MM2, newly diagnosed, E:T 1.4, 7 days
[9] = sample MM369, newly diagnosed, E:T 0.3, 3 days
[10] = sample MM453, newly diagnosed, E:T 2.4, 3 days
[11] = sample MM455, progression, treated, E:T 0.4, 3 days

T1 sequence (Q95LI5 22-198): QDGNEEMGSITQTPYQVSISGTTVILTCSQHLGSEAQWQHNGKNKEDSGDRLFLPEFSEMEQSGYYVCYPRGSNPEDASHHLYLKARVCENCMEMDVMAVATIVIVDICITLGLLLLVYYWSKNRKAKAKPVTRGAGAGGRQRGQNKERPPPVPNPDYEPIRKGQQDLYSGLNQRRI
T1 sequence (Q95LI8 22-171): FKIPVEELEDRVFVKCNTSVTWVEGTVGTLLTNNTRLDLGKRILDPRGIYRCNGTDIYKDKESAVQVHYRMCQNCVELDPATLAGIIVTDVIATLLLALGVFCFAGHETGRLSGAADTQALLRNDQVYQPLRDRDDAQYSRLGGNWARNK
T1 sequence (Q95LI7 23-181 partner): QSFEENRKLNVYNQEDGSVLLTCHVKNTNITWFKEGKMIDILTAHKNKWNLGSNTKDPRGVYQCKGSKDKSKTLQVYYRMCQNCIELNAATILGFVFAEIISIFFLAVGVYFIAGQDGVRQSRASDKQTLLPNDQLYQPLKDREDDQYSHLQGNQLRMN
Chain of monkey BCMA-MFC (as listed by the source): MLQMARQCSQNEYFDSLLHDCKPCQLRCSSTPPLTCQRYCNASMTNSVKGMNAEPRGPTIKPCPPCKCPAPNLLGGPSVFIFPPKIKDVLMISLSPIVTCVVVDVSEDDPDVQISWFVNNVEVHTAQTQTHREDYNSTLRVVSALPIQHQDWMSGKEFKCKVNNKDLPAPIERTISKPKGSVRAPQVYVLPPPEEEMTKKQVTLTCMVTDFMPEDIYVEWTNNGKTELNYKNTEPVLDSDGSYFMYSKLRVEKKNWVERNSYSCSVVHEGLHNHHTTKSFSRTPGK
Chain of monkey BCMA-MMH (as listed by the source): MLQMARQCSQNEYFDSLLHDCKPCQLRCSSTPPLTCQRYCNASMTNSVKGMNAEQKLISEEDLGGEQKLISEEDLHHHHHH

Substance | S:N [1] | S:N [2] | EC50 ([3]; sample MM2, E:T 1.4, 7 days) | % MM lysis at 66 nM [3, 8] | % MM lysis at 66 nM [3, 9] | EC50 ([3]; sample MM453, E:T 2.4, 3 days) | % MM lysis at 66 nM [3, 10] | EC50 ([3]; sample MM455, E:T 0.4, 3 days) | % MM lysis at 66 nM [3, 11] | ka [4] | kd [4] | ka [5] | kd [5] | Mf (Cyno) CD8+ T cells EC50 [M] [6] | S:N [7] | EC50 ([3]; sample MM369, E:T 0.3, 3 days)
REGN5458: anti-BCMA×anti-CD3 bispecific antibody: BCMA HCVR of mAb21581 (SEQ 66), CD3 HCVR of mAb7221G (SEQ 90), common LCVR SEQ 82 | 8 | 39 | 0.747 nM | 88% | 96% | 0.0989 nM | 82% | 3.67 nM | 63% | – | – | – | – | – | – | –
REGN5459: anti-BCMA×anti-CD3 bispecific antibody: BCMA HCVR of mAb21581 (SEQ 66), CD3 HCVR of mAb7221G20 (SEQ 98), common LCVR SEQ 82 | – | – | 7.24 nM | 85% | 94% | 1.19 nM | 80% | 79.4 nM | 52% | 482000 M⁻¹ s⁻¹ | 7.15e-05 s⁻¹ | 223000 M⁻¹ s⁻¹ | 0.00864 s⁻¹ | did not bind; also recorded: No binding | 31 | 0.496 nM
